In patent US8633245B2, “PAI-1 inhibitor” (Institute of Medicinal Molecular Design, Inc., priority 2008, dated 2014):
Where two headings read alike, the source gives them in different places.

Biological target: T1, recombinant human PAI-1 (Homo sapiens, UniProt P05121)
T1 construct: purchased Molecular Innovations, Inc
Experiment: Test Example 2: human PAI-1 inhibitory activity (tPA fluorogenic substrate, pH 7.4 HEPES buffer)
Format: biochemical
Conditions: for inhibition at 3 µM: read-out: Inhibition Rate of PAI-1 Activity (%)
Method: 0.1 M HEPES, 0.1 M NaCl. 1 mM EDTA. 0.1% Polyethylene glycol 8,000 (Hampton Research Corporation),
2 mM Dimethyldecylphoshine oxide [Apo-10] (Fluka Corporation)

[1] = human PAI-1, compound concentration 0.1 μM
[2] = human PAI-1, compound concentration 0.3 μM
[3] = human PAI-1, compound concentration 1 μM
[4] = human PAI-1, compound concentration 3 μM
[5] = human PAI-1, calculated from the inhibition rates

T1 sequence (P05121 24-402): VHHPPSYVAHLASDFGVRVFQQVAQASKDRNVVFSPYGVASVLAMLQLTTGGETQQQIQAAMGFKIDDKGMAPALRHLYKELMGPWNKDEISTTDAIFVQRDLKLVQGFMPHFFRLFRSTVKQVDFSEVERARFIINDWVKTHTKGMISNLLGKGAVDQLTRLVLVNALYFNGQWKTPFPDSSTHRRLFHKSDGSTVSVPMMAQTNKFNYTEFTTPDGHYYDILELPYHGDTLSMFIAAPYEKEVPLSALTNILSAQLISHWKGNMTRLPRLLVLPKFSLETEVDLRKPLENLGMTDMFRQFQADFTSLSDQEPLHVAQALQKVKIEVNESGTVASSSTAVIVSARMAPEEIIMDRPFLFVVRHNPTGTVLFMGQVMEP

Compound | Inhibition Rate of PAI-1 Activity (%) [1] [%] | Inhibition Rate of PAI-1 Activity (%) [2] [%] | Inhibition Rate of PAI-1 Activity (%) [3] [%] | Inhibition Rate of PAI-1 Activity (%) [4] [%] | other results
CC(C)(C)c1ccc(Sc2cc(-c3ccc(OC(F)(F)F)cc3)ccc2CCC(=O)O)cc1 [Compound 517] | 20 | 50 | 95 | >99 | –
O=C(O)COc1cc(Oc2ccc(OC(F)(F)F)cc2)ccc1OCCCCc1ccccc1 [Compound 452] | 9 | 8 | 15 | 94 | –
CC(C)(C)c1ccc(Oc2cc(-c3ccc(C(C)(C)C)cc3)ccc2/C=C/C(=O)O)cc1 [Compound 495] | 8 | 64 | 98 | >99 | –
CC(C)(C)c1ccc(Oc2cc(-c3ccc(C(F)(F)F)cc3)ccc2OCC(=O)O)cc1 [Compound 330] | – | – | – | – | IC50 [5]: 1030 nM
O=C(O)/C=C/c1ccc(-c2ccc(OC(F)(F)F)cc2)cc1Sc1ccccc1 [Compound 528] | 8 | 12 | 51 | 97 | –
CC(C)(C)c1ccc(CN(C(=O)CCCC(=O)O)c2ccc(-c3ccc(OC(F)(F)F)cc3)cc2)cc1 [Compound 604] | – | – | 0 | 20 | Inhibition Rate of PAI-1 Activity (%) (human PAI-1, compound concentration 10 μM): 36%; Inhibition Rate of PAI-1 Activity (%) (human PAI-1, compound concentration 25 μM): 46%
O=C(O)C(=O)N(CCCCc1ccccc1)c1cc(-c2ccc(OC(F)(F)F)cc2)ccc1OC1CCCCCC1 [Compound 659] | 12 | 26 | >99 | 96 | –
CC(C)(C)c1ccc(Sc2cc(-c3ccc(OC(F)(F)F)cc3)ccc2/C=C/C(=O)O)cc1 [Compound 462] | 37 | 94 | 97 | 95 | –
CCCCCCCOc1ccc(-c2ccc(OC(F)(F)F)cc2)cc1N(CCCCc1ccccc1)C(=O)C(=O)O [Compound 352] | – | – | – | – | IC50 [5]: 740 nM
O=C(O)C(=O)N(CCCCc1ccccc1)c1cc(-c2ccc(OC(F)(F)F)cc2)ccc1OC1CCCCC1 [Compound 368] | – | – | – | – | IC50: 450 nM
O=C(O)C(=O)N(Cc1ccc2ccccc2c1)c1ccc(-c2ccc(OC(F)(F)F)cc2)cc1 [Compound 661] | 6 | 11 | 27 | >99 | –
CCC(CC)Oc1ccc(-c2ccc(CCC(=O)O)c(Oc3ccc(C(C)(C)C)cc3)c2)cc1 [Compound 522] | 33 | 71 | 98 | 98 | –
CC(C)(C)c1ccc(Oc2cc(-c3ccc(OC(F)(F)F)cc3)ccc2CCCC(=O)O)cc1 [Compound 527] | 6 | 36 | 98 | >99 | –
CCCCCOc1ccc(-c2cc(C)cc(C)c2)cc1N(CCCCc1ccccc1)C(=O)C(=O)O [Compound 672] | 3 | 15 | 92 | >99 | –
CCCCOc1ccc(Oc2cc(-c3ccc(OC(F)(F)F)cc3)ccc2OCC(=O)O)cc1 [Compound 523] | 11 | 15 | 78 | >99 | –
CCCCCCC(Oc1cc(-c2ccc(OC(F)(F)F)cc2)ccc1Oc1ccc(C(F)(F)F)cc1)C(=O)O (stereo not shown) [Compound 327] | – | – | – | – | IC50 [5]: 420 nM
Cc1cc(C)cc(Oc2cc(-c3ccc(C(C)(C)C)cc3)ccc2/C=C/C(=O)O)c1 [Compound 494] | 9 | 24 | 87 | 92 | –
CCCCCOc1ccc(-c2ccc(OC(F)(F)F)cc2)cc1N(CCCCc1ccc(F)cc1)C(=O)C(=O)O [Compound 382] | – | – | – | – | IC50: 650 nM

Compound | Inhibition Rate of PAI-1 Activity (%) [1] [%] | Inhibition Rate of PAI-1 Activity (%) [2] [%] | Inhibition Rate of PAI-1 Activity (%) [3] [%] | Inhibition Rate of PAI-1 Activity (%) [4] [%] | other results
CCCCCOc1ccc(-c2ccc(C)cc2)cc1N(CCCCc1ccccc1)C(=O)C(=O)O [Compound 677] | 19 | 17 | 93 | 98 | –
CCCCCCCOc1ccc(-c2ccc(OC(F)(F)F)cc2)cc1N(CCCCc1ccccc1)C(=O)C(=O)O [Compound 371] | 10 | 17 | 93 | 91 | IC50 (concentration that inhibits 50% of the human PAI-1 activity, calculated from Test Example 2 inhibition rates): 690 nM
O=C(O)CCc1cc(-c2ccc(OC(F)(F)F)cc2)ccc1OCCCCCOc1ccc(-c2ccc(OC(F)(F)F)cc2)cc1CCC(=O)O [Compound 544] | 0 | 3 | 56 | 92 | –
CC(C)(C)c1ccc(Oc2cc(-c3ccc(C#N)cc3)ccc2OCC(=O)O)cc1 [Compound 471] | 5 | 7 | 11 | 49 | –
CCCCCOc1ccc(-c2ccc(OC(F)(F)F)cc2)cc1N(CCCSc1ccccc1)C(=O)C(=O)O [Compound 357] | – | – | – | – | IC50 [5]: 770 nM; inhibition at 3 µM: > 99%
CC(C)(C)c1ccc(Oc2cc(-c3ccc(OC(F)(F)F)cc3)ccc2N(CCCCc2ccccc2)C(=O)C(=O)O)cc1 [Compound 635] | 14 | 30 | 45 | 91 | –
CC(C)(C)c1ccc(Oc2ccc(Nc3ccc(OC(F)(F)F)cc3)cc2/C=C/C(=O)O)cc1 [Compound 431] | 0 | 0 | 77 | >99 | –
Cc1cc(C)cc(-c2ccc(CCC(=O)O)c(Oc3ccc(C(C)(C)C)cc3)c2)c1 [Compound 498] | 1 | 4 | 44 | >99 | –
CC(C)(C)C1CCC(CN(C(=O)C(=O)O)c2ccc(-c3ccc(OC(F)(F)F)cc3)cc2)CC1 (stereo not shown) [Compound 680] | – | 9 | – | >99 | Inhibition Rate of PAI-1 Activity (%) (human PAI-1, compound concentration 0.1 μM, 0.1 µM): 7%; Inhibition Rate of PAI-1 Activity (%) (human PAI-1, compound concentration 1 μM, 1 µM): 77%
CCCCCOc1ccc(Oc2ccc(OC(F)(F)F)cc2)cc1N(CCCCc1ccccc1)C(=O)C(=O)O [Compound 363] | – | – | – | – | IC50: 830 nM; inhibition at 3 µM: > 99%
CCCCCN(C(=O)C(=O)O)c1cc(-c2ccc(OC(F)(F)F)cc2)ccc1OCCCCc1ccccc1 [Compound 358] | – | – | – | – | IC50 [5]: 900 nM
CC(C)(C)c1ccc(Oc2ccc(-c3cccc(OC(F)(F)F)c3)cc2OCC(=O)O)cc1 [Compound 329] | – | – | – | – | IC50 [5]: 1720 nM
CCCCCCCCCOc1ccc(-c2ccc(OC(F)(F)F)cc2)cc1N(CCCCc1ccccc1)C(=O)C(=O)O [Compound 364] | – | – | – | – | IC50: 110 nM
O=C(O)/C=C/c1ccc(-c2ccc(OC(F)(F)F)cc2)cc1OCCCSc1ccccc1 [Compound 489] | 12 | 14 | 69 | >99 | –
CCCCCOc1ccc(-c2ccccc2)cc1N(CCCCc1ccccc1)C(=O)C(=O)O [Compound 360] | – | – | – | – | IC50: 1590 nM
CCCCC(Oc1ccc(-c2ccc(OC(F)(F)F)cc2)cc1Oc1ccc(C(C)(C)C)cc1)C(=O)O (stereo not shown) [Compound 305] | – | – | – | – | IC50 [5]: 940 nM
CCCCCCCOc1cc(-c2ccc(OC(F)(F)F)cc2)cc(OCCCCCCC)c1OCC(=O)O [Compound 425] | 17 | 54 | >99 | – | –
